Holding throughout (assay type): cell-based, Plasmodium berghei
The test system of assay [1] is CSP processing in P. berghei sporozoites. The experiment in a line: Pulse-chase metabolic labeling of CSP processing, P. berghei sporozoites. How it is done: P. berghei sporozoites were incubated in Dulbecco's Modified Eagle Medium (DMEM; Invitrogen, Carlsbad, Calif.) without cysteine (Cys) and methionine (Met), containing 1% BSA and […] L-[35 S]-Cys/Met (Pro-Mix, Amersham Pharmacia) in a total volume of 200 μl for one hour at 28° C. They were then washed and resuspended in DMEM/BSA containing unlabeled Cys/Met at 28° C. for the indicated time in the presence or absence of the indicated protease inhibitor. Sporozoites were then lysed and CSP was immunoprecipitated and analyzed by autoradiography as outlined below.
When sporozoites were incubated with specific inhibitors, their concentrations were as follows: 10 […] E-64; 1 mM phenylmethylsulfonyl fluoride (PMSF); 0.3 mM aprotinin; 100 mM 3,4 DCl; 75 mM leupeptin; 100 mM TLCK; 1 mM pepstatin; 1 mM 1,10 phenanthroline; 5 mM EDTA; 0.5% sodium azide. To check for toxicity by propidium iodide (PI) staining, P. berghei sporozoites were incubated in the presence or absence of the various protease inhibitors for two hours at 28° C., PI was then added to a final concentration of […] for five minutes at 28° C. The sporozoites were washed and viewed under a fluorescent microscope.
Metabolically-labeled sporozoites were lysed in lysis buffer (1% Triton X-100, 50 mM Tris-HCl pH 8.0) with 150 mM NaCl containing a protease inhibitor cocktail (Complete Mini-Tablets, Roche) for one hour at 4° C. The lysates were incubated with mAb 3D11 conjugated to agarose overnight at 4° C. with agitation, and the beads were then washed sequentially with lysis buffer containing 150 mM NaCl, high salt buffer (500 mM NaCl in lysis buffer), lysis buffer without added NaCl, and pre-elution buffer (0.5% Triton X-100, 10 mM Tris-HCl pH 6.8). CSP was eluted with 1% SDS in 0.1 M glycine pH 1.8, neutralized with 1.5 M Tris-HCl pH 8.8, and run on a 7.5% SDS-polyacrylamide gel under nonreducing conditions.
P. berghei sporozoites were metabolically labeled as previously described (Bruna-Romero, O., et al.). Briefly, sporozoites were labeled in Dulbecco's Modified Eagle Medium containing 1% BSA (DMEM/BSA) without Cys/Met and with 400 μCi/ml L-[^35S]Cys/Met for one hour at 28° C. and chased in DMEM/BSA with Cys/Met at 28° C. in the presence of 10 μM E-64 or the indicated concentrations of allicin. Labeled sporozoites were lysed in 1% Triton X-100/150 mM NaCl/50 mM Tris-HCl pH 8.0 with protease inhibitors, and lysates were incubated with 3D11-sepharose overnight at 4° C. CSP was eluted with 1% SDS in 0.1 M glycine pH 1.8, neutralized with Tris-HCl pH 8.8, and run on a 7.5% SDS-polyacrylamide gel under nonreducing conditions. The gel was fixed, enhanced with Amplify (Amersham Pharmacia), dried and exposed to film.
P. berghei sporozoites were metabolically labeled in DMEM without Cys/Met, 1% BSA and 400 μCi/ml L-[^355]-Cys/Met for 1 hour at 28° C. and then kept on ice or chased at 28° C. for the indicated times. Details of this procedure are outlined in (Coppi et al., 2005). To investigate the kinetics of processing in the presence of hepatocytes, sporozoites were labeled as above, chased at 28° C. for 1 hour and then centrifuged (300×g) onto glass coverslips with Hepa 1-6 cells and incubated at 37° C. for 5, 15 or 30 minutes. To investigate the effect of antibodies on CSP cleavage, sporozoites were labeled as above and then chased for 2 hours in the presence of the indicated antibody. Monoclonal antibodies were used as purified antibodies at the indicated concentrations and the IgG fraction of the NH2-terminal antiserum was used after isolation by Protein A (Vivapure maxiprepA; Sartorius, Edgewood, N.Y.). In all cases, labeled sporozoites (with or without Hepa 1-6 cells) were lysed and labeled CSP was immunoprecipitated with mAb-3D11 conjugated to sepharose or in the case of P. falciparum CSP, with mAb-2A10 conjugated to sepharose, as previously described (Coppi et al., 2005). CSP was eluted from the beads, run on an SDS-PAGE gel which was enhanced, dried and exposed to film. […]

Assay [2] has as its system P. berghei sporozoites. How it is done: %invasion=total sporozites−extracellular sporozites×100/total sporozites
Invasion assays were performed as previously described (Pinzon-Ortiz, C., et al.) with some modifications. […] Cells were then washed, fixed, and sporozoites were stained with a double staining assay that distinguishes between intracellular and extracellular sporozoites (Renia, L., et al.). […]

Assay [3] deals with P. berghei sporozoites. The assay can be described thus: Sporozoite gliding motility assay, P. berghei. How it is done:
Glass 8-chambered Lab-tek wells (Nalgene) were coated with 10 μg/ml 3D11 in PBS overnight at 25° C. and then washed three times with PBS. 2×10^4 P. berghei sporozoites were incubated with 50 μM allicin in DMEM without Cys/Met for ten minutes at 28° C., the medium removed and replaced with DMEM/3% BSA containing 50 μM or 4.2 μM allicin before sporozoites were added to the coated Lab-Tek wells. The sporozoites were incubated for one hour at 37° C., the medium was removed, and the wells were fixed with 4% paraformaldehyde, washed, blocked with PBS/1% BSA, and incubated with biotinylated 3D11 followed by Streptavidin-FITC (1:100 dilution; Amersham Pharmacia). All incubations were performed at 37° C. for one hour. Controls included untreated sporozoites and sporozoites added to wells in the presence of 1 μM cytochalasin D. For each group, gliding motility was assessed by determining the percentage of sporozoites associated with trails, and for those sporozoites with trails, counting the number of circles in each trail.

[4] abbreviates: 50 μM allicin ten minutes, then diluted to 4.2 μM.

Structures are written as SMILES.

Take `CC(C)C[C@H](NC(=O)[C@H]1O[C@@H]1C(=O)O)C(=O)NCCCCN=C(N)N` (relative stereo) [E-64, L-trans-epoxysuccinyl-leucylamide-[4-guanido]-butane]: the “effect on CSP processing” value in assay [1] (two hour chase at 28° C., 10 mM E-64, 1 mM PMSF, 0.3 mM aprotinin, 100 mM 3,4 DCl, 75 mM leupeptin, 100 mM TLCK, 1 mM pepstatin, 1 mM 1,10 phenanthroline, 5 mM EDTA) is listed as “inhibited CSP processing”. Moreover, in the assay with P. berghei sporozoites [2] (Hepa 1-6 cells pretreated with E-64, untreated sporozoites), the “effect on sporozoite invasion, target cells pretreated” value is listed as “no inhibitory effect on sporozoite invasion”. For the same compound, the “number of extracellular (attached) sporozoites” value with P. berghei sporozoites [2] (in the presence of E-64) is recorded as “always enhanced”. Also, the inhibition of invasion in the assay on P. berghei sporozoites [2] (sporozoites preincubated two hours with 10 mM E-64, Hepa 1-6 cells, one hour) is 90%. Also, in the assay on P. berghei sporozoites [2] (wild type and RCon sporozoites, Hepa 1-6, 1 hr), the “intracellular sporozoites in the presence of inhibitor” value is “few intracellular wild type and RCon sporozoites”. Also, the “average number of circles per gliding sporozoite” value with P. berghei sporozoites [3] (E-64 treated versus untreated sporozoites) is recorded as “not different”. Besides, in the assay with P. berghei sporozoites [3] (P. berghei, preincubated with 10 mM E-64), the “percentage of sporozoites that exhibited gliding motility” value is “no effect”.
For `C=CCS[S+]([O-])CC=C` (stereo not drawn) [allicin], the CSP cleavage entry in assay [1] (50 μM allicin for 10 minutes, then diluted to 4.2 μM for the remainder of the chase) is given as “prevented CSP cleavage to the same extent as when 50 μM allicin was present during the entire chase”; in assay [1] (10, 25, and 50 μM allicin, two hour chase), “inhibited”. Besides, in assay [1] (allicin versus 10 μM E-64), the “degree of inhibition of CSP cleavage relative to E-64” value is given as “comparable to that observed with E-64”. The “sporozoite invasion of cells” value in the assay on P. berghei sporozoites [2] (10, 25, and 50 μM allicin pretreatment) is “inhibited sporozoite invasion of cells in a dose dependent manner”. For the same compound, the “effect on invasion, host cells pretreated” value in the assay on P. berghei sporozoites [2] (Hepa 1-6 cells preincubated with 50 μM allicin one hour, untreated sporozoites) is reported as “no effect on invasion”. In addition, the gliding motility result is reported as “no effect on gliding motility” in the assay on P. berghei sporozoites [3] (setting [4]) and “completely inhibited” with P. berghei sporozoites [3] (kept in 50 μM allicin for the duration of the assay). In addition, in the assay with P. berghei sporozoites [3] (setting [4]), the “percentage gliding and number of circles per trail versus controls” value is “the same”.

Source of the values: patent US20130022612A1, “METHODS AND COMPOSITIONS FOR MALARIA PROPHYLAXIS” (priority 2004, published 2013).
